In the supplement of paper PMC6045584:
± gives the standard deviation of the averaged measurements.

Tests used:
[1] = compound: C[C@@H](Oc1cc(-c2cnn(C3CCNCC3)c2)cnc1N)c1c(Cl)ccc(F)c1Cl [CRIZOTINIB]; experiment: surviving fraction relative to DMSO-only wells; higher = less growth inhibition; details: exposure time: 5 days
Outline: (§1)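 Continuous five-day exposure to inhibitors at 0.5, 1, 5, 10, 50, 100, 500 and 1000 nM started 24 hours after log-phase tumour cell lines were seeded at 250–500 cells per well in 384-well plates. Luminescence was read after 10 minutes at room temperature. Viability is given as surviving fraction, meaning CellTiter-Glo luminescence normalised to the median of DMSO-only wells.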

[2] = compound: O=C(c1cc(Cc2n[nH]c(=O)c3ccccc23)ccc1F)N1CCN(C(=O)C2CC2)CC1 [OLAPARIB]; experiment: as above; details: exposure time: 5 days
Outline: as §1

| Test System | surviving fraction ([1]; 0.5 nM) | surviving fraction ([1]; 1 nM) | surviving fraction ([1]; 5 nM) | surviving fraction ([1]; 10 nM) | surviving fraction ([1]; 1000 nM) | surviving fraction ([2]; 0.5 nM) | surviving fraction ([2]; 1 nM) | surviving fraction ([2]; 5 nM) | surviving fraction ([2]; 10 nM) | surviving fraction ([2]; 50 nM) | surviving fraction ([2]; 100 nM) | surviving fraction ([2]; 500 nM) | surviving fraction ([2]; 1000 nM) | surviving fraction ([1]; 50 nM) | surviving fraction ([1]; 100 nM) | surviving fraction ([1]; 500 nM) |
| --- | --- | --- | --- | --- | --- | --- | --- | --- | --- | --- | --- | --- | --- | --- | --- | --- |
| HUO3N1 BONE | 1.03 ± 0.016 | 1.02 ± 0.049 | 1.117 ± 0.0087 | 1.07 ± 0.083 | 0.787 ± 0.061 | 1.008 ± 0.0076 | 1.01 ± 0.024 | 1.06 ± 0.029 | 1.02 ± 0.031 | 1.03 ± 0.045 | 0.922 ± 0.032 | 0.913 ± 0.014 | 0.834 ± 0.02 | – | – | – |
| JIMT1 BREAST | 1.01 ± 0.029 | 1.01 ± 0.029 | 1.03 ± 0.012 | 1 ± 0.032 | 0.538 ± 0.022 | 0.917 ± 0.035 | 0.911 ± 0.024 | 0.9352 ± 0.0078 | 0.907 ± 0.023 | 0.934 ± 0.026 | 0.9217 ± 0.0036 | 0.9207 ± 0.0084 | 0.846 ± 0.025 | 1.07 ± 0.045 | 1.08 ± 0.036 | 0.833 ± 0.044 |
| JURKAT HAEMATOPOIETIC AND LYMPHOID TISSUE | 1.04 ± 0.011 | – | – | 0.96 ± 0.035 | 0.306 ± 0.011 | 1.1 ± 0.022 | 1.12 ± 0.03 | 1.08 ± 0.03 | 1.07 ± 0.014 | 1.038 ± 0.0047 | 0.994 ± 0.024 | 1 ± 0.019 | 0.847 ± 0.029 | – | 0.928 ± 0.028 | 0.212 ± 0.0087 |
| KPD BONE | 0.936 ± 0.05 | 1.01 ± 0.038 | – | 1.16 ± 0.03 | 0.245 ± 0.011 | 0.983 ± 0.011 | 0.946 ± 0.024 | 0.969 ± 0.024 | 0.995 ± 0.093 | 0.959 ± 0.059 | 0.965 ± 0.022 | 0.765 ± 0.007 | 0.711 ± 0.033 | – | – | – |
| LM7 BONE | – | 1.01 ± 0.043 | 1.07 ± 0.067 | – | 0.221 ± 0.0062 | 1 ± 0.081 | 0.976 ± 0.058 | 1.02 ± 0.071 | 0.963 ± 0.015 | 0.812 ± 0.042 | 0.829 ± 0.02 | 0.614 ± 0.0076 | 0.554 ± 0.014 | 1.04 ± 0.051 | 1.12 ± 0.07 | 0.591 ± 0.046 |
| LNCAP PROSTATE | 1.01 ± 0.15 | – | – | 0.924 ± 0.094 | 0.425 ± 0.065 | 1.09 ± 0.1 | 1.03 ± 0.16 | 1 ± 0.096 | 1.032 ± 0.0049 | 1.12 ± 0.086 | 1.02 ± 0.29 | 0.97 ± 0.061 | 0.82 ± 0.13 | 0.872 ± 0.061 | 0.904 ± 0.12 | 0.653 ± 0.063 |
| MCF7 BREAST | 0.963 ± 0.04 | – | 0.967 ± 0.011 | 0.968 ± 0.042 | 0.617 ± 0.035 | 0.891 ± 0.015 | 0.941 ± 0.014 | 0.946 ± 0.085 | 0.907 ± 0.037 | 0.96 ± 0.039 | 0.906 ± 0.051 | 0.95 ± 0.026 | 0.943 ± 0.043 | 1 ± 0.025 | 0.981 ± 0.021 | 1 ± 0.05 |
| MDAMB134 BREAST | – | 1.01 ± 0.028 | 0.93 ± 0.068 | 1.06 ± 0.04 | 0.947 ± 0.026 | 0.96 ± 0.055 | 1.04 ± 0.17 | 1.04 ± 0.13 | 1.05 ± 0.03 | 0.971 ± 0.21 | 0.738 ± 0.042 | 0.8595 ± 0.0035 | 0.823 ± 0.028 | 0.91 ± 0.0085 | – | 1.05 ± 0.019 |
| MDAMB157 BREAST | 1.03 ± 0.087 | 0.999 ± 0.027 | 1.06 ± 0.076 | 0.977 ± 0.044 | 0.601 ± 0.029 | 1.01 ± 0.093 | 1.06 ± 0.035 | 0.992 ± 0.085 | 0.968 ± 0.051 | 0.991 ± 0.096 | 0.965 ± 0.043 | 0.903 ± 0.079 | 0.729 ± 0.04 | 1.06 ± 0.11 | 1.04 ± 0.082 | 0.754 ± 0.021 |
| MDAMB231 BREAST | 0.997 ± 0.019 | 1.01 ± 0.024 | 0.999 ± 0.034 | 1 ± 0.023 | 0.352 ± 0.022 | 0.961 ± 0.02 | 0.98 ± 0.031 | 0.974 ± 0.0099 | 0.97 ± 0.029 | 0.929 ± 0.017 | 0.957 ± 0.013 | 0.899 ± 0.015 | 0.807 ± 0.016 | 0.947 ± 0.031 | 0.9384 ± 0.0074 | 0.541 ± 0.011 |
| MDAMB361 BREAST | 0.815 ± 0.053 | 0.898 ± 0.094 | 0.881 ± 0.035 | 0.848 ± 0.079 | 1.03 ± 0.095 | 0.82 ± 0.026 | 0.793 ± 0.076 | 0.773 ± 0.094 | 0.767 ± 0.042 | 0.612 ± 0.064 | 0.603 ± 0.048 | 0.577 ± 0.051 | 0.523 ± 0.036 | 0.828 ± 0.07 | – | 0.882 ± 0.067 |
